The target of assay [1] is Sodium-dependent dopamine transporter (Homo sapiens) (UniProt Q01959). To be noted: Compound concentration 10.0 uM.
Assay [2] has as its target T1, Prostaglandin F2-alpha receptor (Homo sapiens, UniProt P43088). In words: Bayer inhouse assay (human).
Assay [3] concerns the target T1, Prostaglandin F2-alpha receptor. In words: Panlabs binding assay.
In assay [4] the target is 5-hydroxytryptamine receptor 1D (Homo sapiens) (UniProt P28221). The conditions noted are these: Compound concentration 10.0 uM.
For assay [5], the target named is 5-hydroxytryptamine receptor 1E (Homo sapiens) (UniProt P28566). To be noted: Compound concentration 10.0 uM.
Assay [6] deals with Sodium-dependent dopamine transporter (Homo sapiens) (UniProt Q01959). The conditions noted are these: Compound concentration 10.0 uM. The source holds these as a separate data set.
Assay [7] addresses T2, Alpha-2C adrenergic receptor (Homo sapiens) (UniProt P18825).
T2 sequence (whole entry): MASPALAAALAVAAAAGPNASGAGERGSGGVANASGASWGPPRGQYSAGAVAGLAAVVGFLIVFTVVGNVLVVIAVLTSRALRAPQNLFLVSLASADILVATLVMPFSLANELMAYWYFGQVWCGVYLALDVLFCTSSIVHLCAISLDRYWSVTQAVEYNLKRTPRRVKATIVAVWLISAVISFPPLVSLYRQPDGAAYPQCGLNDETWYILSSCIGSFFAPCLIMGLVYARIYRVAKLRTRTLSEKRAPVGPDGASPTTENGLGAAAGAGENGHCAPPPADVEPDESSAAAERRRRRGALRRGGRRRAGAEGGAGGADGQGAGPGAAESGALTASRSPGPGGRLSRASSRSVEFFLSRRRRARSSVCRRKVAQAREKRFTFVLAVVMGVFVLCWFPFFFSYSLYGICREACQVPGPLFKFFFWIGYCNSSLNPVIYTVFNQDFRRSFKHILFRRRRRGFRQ
The conditions noted are these: Compound concentration 10.0 uM.

Assay [8] concerns the target Beta-2 adrenergic receptor (Homo sapiens) (UniProt P07550). The conditions noted are these: Compound concentration 10.0 uM.
Assay [9] addresses Delta-type opioid receptor (Homo sapiens) (UniProt P41143). The conditions noted are these: Compound concentration 10.0 uM.
The target of assay [10] is D(3) dopamine receptor (Homo sapiens) (UniProt P35462). To be noted: Compound concentration 10.0 uM.
For assay [11], the target named is Gamma-aminobutyric acid type B receptor subunit 1 (Homo sapiens) (UniProt Q9UBS5). The conditions noted are these: Rattus norvegicus; Compound concentration 10.0 uM.
For assay [12], the target named is T3, Alpha-1A adrenergic receptor (Homo sapiens) (UniProt P35348).
T3 sequence (whole entry): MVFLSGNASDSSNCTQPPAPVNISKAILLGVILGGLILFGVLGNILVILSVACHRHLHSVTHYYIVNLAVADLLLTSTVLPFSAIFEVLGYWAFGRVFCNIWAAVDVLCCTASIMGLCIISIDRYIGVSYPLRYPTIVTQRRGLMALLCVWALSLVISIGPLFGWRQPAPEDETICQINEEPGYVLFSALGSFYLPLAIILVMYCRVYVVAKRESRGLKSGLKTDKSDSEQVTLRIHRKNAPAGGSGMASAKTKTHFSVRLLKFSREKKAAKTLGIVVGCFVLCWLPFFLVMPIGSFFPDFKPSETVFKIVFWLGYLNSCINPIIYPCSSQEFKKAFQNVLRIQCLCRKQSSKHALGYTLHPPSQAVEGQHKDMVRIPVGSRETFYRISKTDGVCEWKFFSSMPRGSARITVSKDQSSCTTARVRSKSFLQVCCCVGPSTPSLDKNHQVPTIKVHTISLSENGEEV
To be noted: Rattus norvegicus; Compound concentration 10.0 uM.

The target in assay [13] is T4, Prostaglandin E2 receptor EP3 subtype (Homo sapiens) (UniProt P43115).
T4 sequence (whole entry): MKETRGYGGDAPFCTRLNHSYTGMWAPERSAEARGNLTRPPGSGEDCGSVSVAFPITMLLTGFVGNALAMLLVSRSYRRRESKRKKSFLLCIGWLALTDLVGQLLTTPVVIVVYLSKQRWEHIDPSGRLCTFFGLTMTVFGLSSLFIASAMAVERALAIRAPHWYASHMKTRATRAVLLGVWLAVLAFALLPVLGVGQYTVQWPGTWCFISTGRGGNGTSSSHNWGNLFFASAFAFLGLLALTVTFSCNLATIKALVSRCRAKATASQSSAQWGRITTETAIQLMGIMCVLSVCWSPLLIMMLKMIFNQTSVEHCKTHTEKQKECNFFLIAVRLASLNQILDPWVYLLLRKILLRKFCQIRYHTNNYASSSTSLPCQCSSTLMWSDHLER
In words: Prostanoid EP3 Eurofins-Panlabs radioligand binding assay. Set-up: ligand concentration 0.5 nM.

The target in assay [14] is Histamine H4 receptor (Homo sapiens) (UniProt Q9H3N8). The conditions noted are these: Compound concentration 10.0 uM.
Assay [15] concerns the target D(2) dopamine receptor (Homo sapiens) (UniProt P14416). The conditions noted are these: Compound concentration 10.0 uM.
Assay [16] addresses Glutamate NMDA receptor (Rattus norvegicus) (UniProt P35439+Q00959+Q00960+Q00961+Q62645+Q8VHN2+Q9R1M7). The conditions noted are these: Compound concentration 10.0 uM.
The target of assay [17] is Beta-3 adrenergic receptor (Homo sapiens) (UniProt P13945). The conditions noted are these: Compound concentration 10.0 uM.
The target of assay [18] is T5, 5-hydroxytryptamine receptor 1A (Homo sapiens) (UniProt P08908).
T5 sequence (whole entry): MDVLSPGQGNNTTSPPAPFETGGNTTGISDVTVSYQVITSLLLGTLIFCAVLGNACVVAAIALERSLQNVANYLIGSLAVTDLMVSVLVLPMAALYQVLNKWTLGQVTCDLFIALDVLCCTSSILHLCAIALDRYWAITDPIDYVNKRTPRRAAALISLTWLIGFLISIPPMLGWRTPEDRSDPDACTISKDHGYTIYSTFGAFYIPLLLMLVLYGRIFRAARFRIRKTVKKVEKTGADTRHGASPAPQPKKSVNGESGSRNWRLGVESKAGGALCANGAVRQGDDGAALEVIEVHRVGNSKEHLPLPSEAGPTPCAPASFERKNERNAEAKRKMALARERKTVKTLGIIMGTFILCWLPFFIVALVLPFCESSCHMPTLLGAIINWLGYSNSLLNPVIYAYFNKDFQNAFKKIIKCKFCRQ
To be noted: Compound concentration 10.0 uM.

The target in assay [19] is Cannabinoid receptor 1 (Homo sapiens) (UniProt P21554). The conditions noted are these: Compound concentration 10.0 uM.
Assay [20] has as its target 5-hydroxytryptamine receptor 2B (Homo sapiens) (UniProt P41595). The conditions noted are these: Compound concentration 10.0 uM.
The target of assay [21] is Glutamate receptor 2 (Homo sapiens) (UniProt P42262). The conditions noted are these: Rattus norvegicus; Compound concentration 10.0 uM.

SMILES strings stand for the structures.

We go through two compounds from ChEMBL document CHEMBL4630901 (2021).

Sodium-dependent dopamine transporter (Homo sapiens), sequence (Q01959 whole entry): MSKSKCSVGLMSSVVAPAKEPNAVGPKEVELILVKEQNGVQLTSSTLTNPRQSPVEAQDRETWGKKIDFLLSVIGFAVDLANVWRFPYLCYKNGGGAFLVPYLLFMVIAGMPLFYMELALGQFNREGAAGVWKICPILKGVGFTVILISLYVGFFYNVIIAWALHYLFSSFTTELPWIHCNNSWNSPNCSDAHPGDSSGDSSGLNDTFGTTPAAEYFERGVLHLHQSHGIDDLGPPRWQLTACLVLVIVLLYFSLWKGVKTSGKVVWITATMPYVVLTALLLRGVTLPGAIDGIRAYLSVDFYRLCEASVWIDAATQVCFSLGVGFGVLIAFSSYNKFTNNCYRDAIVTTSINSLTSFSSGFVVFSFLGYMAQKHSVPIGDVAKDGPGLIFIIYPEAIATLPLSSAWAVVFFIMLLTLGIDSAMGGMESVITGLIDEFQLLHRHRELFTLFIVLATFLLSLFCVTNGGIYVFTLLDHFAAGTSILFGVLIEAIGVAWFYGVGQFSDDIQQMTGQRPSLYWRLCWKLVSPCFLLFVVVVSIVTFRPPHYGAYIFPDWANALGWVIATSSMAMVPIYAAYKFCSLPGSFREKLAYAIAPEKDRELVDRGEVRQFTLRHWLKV
T1 sequence (P43088 whole entry): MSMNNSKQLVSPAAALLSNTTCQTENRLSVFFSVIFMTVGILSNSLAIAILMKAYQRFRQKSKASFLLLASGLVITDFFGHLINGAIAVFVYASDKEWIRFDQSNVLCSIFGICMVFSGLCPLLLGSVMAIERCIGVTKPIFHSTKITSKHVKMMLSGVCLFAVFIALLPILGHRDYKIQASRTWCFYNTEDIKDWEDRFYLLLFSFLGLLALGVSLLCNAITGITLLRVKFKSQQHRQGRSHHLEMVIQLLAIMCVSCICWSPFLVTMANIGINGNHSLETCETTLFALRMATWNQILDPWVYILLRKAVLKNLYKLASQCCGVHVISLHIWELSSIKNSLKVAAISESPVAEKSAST
5-hydroxytryptamine receptor 1D (Homo sapiens), sequence (P28221 whole entry): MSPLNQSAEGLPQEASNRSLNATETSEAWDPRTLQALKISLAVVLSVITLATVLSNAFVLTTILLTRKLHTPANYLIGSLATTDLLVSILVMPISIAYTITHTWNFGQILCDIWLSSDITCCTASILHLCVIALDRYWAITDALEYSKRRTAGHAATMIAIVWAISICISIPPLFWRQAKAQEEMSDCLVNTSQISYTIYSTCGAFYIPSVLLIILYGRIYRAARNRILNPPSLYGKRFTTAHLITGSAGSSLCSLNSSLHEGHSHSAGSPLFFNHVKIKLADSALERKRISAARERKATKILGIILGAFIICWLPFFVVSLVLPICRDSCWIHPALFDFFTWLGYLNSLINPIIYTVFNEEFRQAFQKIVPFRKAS
Gamma-aminobutyric acid type B receptor subunit 1 (Homo sapiens), sequence (Q9UBS5 whole entry): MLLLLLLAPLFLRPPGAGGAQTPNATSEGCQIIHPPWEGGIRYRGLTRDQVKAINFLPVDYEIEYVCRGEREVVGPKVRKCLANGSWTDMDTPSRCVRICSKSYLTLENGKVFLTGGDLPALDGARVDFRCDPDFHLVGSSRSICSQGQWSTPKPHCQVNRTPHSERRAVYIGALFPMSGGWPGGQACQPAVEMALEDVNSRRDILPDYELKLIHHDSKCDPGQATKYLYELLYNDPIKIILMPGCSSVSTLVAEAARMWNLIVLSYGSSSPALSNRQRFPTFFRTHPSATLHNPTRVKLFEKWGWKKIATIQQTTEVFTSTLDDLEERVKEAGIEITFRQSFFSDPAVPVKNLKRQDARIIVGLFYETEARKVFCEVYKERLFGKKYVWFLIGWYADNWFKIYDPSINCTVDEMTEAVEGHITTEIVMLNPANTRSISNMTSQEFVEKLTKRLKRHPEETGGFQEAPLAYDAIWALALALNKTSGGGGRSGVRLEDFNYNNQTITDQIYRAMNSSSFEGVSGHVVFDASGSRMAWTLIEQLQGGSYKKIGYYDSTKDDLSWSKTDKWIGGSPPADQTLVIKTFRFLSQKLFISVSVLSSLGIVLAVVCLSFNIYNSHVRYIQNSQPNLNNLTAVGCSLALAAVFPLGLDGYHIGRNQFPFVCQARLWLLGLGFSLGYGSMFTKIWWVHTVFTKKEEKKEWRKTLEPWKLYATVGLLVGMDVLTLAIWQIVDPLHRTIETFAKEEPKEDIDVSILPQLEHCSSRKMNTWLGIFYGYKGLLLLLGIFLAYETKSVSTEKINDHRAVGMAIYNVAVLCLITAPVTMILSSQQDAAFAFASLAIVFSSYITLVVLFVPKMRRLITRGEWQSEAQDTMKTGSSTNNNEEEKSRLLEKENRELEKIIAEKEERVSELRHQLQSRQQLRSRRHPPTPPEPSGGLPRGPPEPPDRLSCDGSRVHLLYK
D(2) dopamine receptor (Homo sapiens), sequence (P14416 whole entry): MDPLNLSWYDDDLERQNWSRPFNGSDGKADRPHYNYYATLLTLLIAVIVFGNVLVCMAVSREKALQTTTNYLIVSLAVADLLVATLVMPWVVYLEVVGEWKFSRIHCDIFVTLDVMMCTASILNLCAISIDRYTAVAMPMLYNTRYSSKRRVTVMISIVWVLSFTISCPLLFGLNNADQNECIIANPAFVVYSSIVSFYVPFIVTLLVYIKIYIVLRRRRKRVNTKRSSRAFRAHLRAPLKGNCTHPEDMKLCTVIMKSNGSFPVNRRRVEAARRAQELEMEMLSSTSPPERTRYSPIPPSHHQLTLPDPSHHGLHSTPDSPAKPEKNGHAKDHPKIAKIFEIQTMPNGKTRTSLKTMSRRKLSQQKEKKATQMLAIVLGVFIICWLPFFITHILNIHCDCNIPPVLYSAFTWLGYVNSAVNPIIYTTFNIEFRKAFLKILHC
Delta-type opioid receptor (Homo sapiens), sequence (P41143 whole entry): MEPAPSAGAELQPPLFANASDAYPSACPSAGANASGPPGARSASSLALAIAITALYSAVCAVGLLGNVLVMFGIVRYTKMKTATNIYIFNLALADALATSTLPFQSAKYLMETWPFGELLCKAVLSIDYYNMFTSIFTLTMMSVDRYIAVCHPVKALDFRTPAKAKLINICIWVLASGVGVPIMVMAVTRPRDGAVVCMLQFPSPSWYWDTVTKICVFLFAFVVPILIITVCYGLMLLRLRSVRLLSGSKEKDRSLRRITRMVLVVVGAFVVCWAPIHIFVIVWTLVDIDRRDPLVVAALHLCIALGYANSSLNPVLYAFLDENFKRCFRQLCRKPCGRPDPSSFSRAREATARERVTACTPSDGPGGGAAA
Glutamate receptor 2 (Homo sapiens), sequence (P42262 whole entry): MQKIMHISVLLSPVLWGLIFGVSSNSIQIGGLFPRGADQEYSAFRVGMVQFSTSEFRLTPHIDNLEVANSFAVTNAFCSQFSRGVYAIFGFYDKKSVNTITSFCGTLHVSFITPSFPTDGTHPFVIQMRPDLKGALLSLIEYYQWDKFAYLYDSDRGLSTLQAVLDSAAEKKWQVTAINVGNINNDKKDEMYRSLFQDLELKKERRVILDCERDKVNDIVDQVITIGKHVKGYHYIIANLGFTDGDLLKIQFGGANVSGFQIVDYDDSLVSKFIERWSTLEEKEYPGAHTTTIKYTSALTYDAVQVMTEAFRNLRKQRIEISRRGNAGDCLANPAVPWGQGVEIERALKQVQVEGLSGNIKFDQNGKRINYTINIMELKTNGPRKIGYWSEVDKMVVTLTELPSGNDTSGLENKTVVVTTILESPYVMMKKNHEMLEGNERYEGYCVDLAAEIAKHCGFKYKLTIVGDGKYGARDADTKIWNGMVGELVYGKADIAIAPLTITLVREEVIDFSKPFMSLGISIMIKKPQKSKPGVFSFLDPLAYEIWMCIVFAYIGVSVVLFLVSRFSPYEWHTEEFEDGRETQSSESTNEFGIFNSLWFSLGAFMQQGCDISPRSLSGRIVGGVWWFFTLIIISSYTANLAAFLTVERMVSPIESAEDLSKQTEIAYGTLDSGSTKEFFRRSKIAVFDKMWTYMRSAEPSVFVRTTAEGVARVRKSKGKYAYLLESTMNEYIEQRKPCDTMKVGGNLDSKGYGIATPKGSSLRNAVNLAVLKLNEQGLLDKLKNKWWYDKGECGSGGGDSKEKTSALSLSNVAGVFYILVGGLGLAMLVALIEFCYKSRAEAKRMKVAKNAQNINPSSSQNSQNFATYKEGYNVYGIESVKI
Cannabinoid receptor 1 (Homo sapiens), sequence (P21554 whole entry): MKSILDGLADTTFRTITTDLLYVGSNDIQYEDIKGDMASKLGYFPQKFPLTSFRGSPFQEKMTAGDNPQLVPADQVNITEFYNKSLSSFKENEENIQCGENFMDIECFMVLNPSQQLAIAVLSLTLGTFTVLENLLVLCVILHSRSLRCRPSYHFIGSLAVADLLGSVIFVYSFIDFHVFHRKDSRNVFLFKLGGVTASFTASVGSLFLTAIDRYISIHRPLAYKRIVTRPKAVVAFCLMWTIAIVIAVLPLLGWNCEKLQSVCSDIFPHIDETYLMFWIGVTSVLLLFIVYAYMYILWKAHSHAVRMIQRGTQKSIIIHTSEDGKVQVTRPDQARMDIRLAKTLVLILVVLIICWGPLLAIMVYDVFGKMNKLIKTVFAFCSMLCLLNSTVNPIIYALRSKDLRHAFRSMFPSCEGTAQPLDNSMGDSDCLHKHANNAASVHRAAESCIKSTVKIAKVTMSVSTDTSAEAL
5-hydroxytryptamine receptor 1E (Homo sapiens), sequence (P28566 whole entry): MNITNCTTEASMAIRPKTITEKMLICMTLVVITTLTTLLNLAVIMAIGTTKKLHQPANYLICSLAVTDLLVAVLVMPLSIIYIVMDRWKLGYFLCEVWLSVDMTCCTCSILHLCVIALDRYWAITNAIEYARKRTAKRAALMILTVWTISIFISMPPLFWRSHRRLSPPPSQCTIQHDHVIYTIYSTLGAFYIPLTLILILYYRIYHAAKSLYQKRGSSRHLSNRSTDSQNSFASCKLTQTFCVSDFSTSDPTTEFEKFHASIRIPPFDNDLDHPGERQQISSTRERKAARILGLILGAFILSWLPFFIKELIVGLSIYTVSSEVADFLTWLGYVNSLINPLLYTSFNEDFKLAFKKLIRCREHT

Broadly, the inhibition is the relative decrease from the control value, in per cent. As a reminder, the IC50 is the concentration needed to halve the response being measured. Consider `Cc1c(N2CCNCC2)nc2ccc(Br)cc2c1C(=O)NC[C@H](CCC(=O)O)c1ccccc1Cl` [BAY-403], for which the inhibition in [1] was 33.5%; in assay [4] it was 9.12%; in [5], 18.3%. Also, the 50% inhibitory concentration (IC50) in assay [2] was 1.2 µM (not active); in assay [3] it was > 10 µM (not active).
For the compound `Cc1c(N2CCCC2)nc2ccc(Br)cc2c1C(=O)NC[C@H](CCC(=O)O)c1ccccc1Cl` [BAY-6672], the inhibition in assay [6] is 15%; in assay [7], 6%; in assay [8] it was 18%; in [9], 5%; in assay [10], 10%; in assay [11], -4%. Further, the inhibition in [12] is 6%; in assay [13] (Compound concentration 0.001 uM), 7%; in assay [13] (Compound concentration 0.01 uM), 2%; in assay [13] (Compound concentration 0.1 uM) it was 17%; in [13] (Compound concentration 1.0 uM) it was 10%; in assay [13] (Compound concentration 10.0 uM) it was 15%. Also, the inhibition in assay [14] is 13.1%; in [15], 3%; in assay [16], -5%; in assay [17], 21.6%; in [18], 3%; in assay [19], 10%. Further, the inhibition was 12% in assay [20] and -3% in assay [21].
